Experimental data published in patent publication US20260262643A1, “HERBICIDAL BENZOXAZINES” (FMC CORPORATION, priority 2022, published 2026).

Legend:
foxtail, giant [1] = test: Test C postemergence; type: in vivo, Setaria faberi; details: 10 days, 0 to 100 scale (0 no effect, 100 complete control)
How it was run: (§1)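 Pre: seeds in loam/sand, directed soil spray. Post: 1–2 leaf plants, 2–10 cm. Cmpd in non-phytotoxic solvent + surfactant. Greenhouse 10 d; visual rating vs untreated, 0 = none, 100 = complete control.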

oat, wild [2] = test: Test C postemergence; type: in vivo, Avena fatua; details: 10 days, 0 to 100 scale (0 no effect, 100 complete control)
How it was run: as §1

blackgrass [3] = test: Test C preemergence; type: in vivo, Alopecurus myosuroides; details: preemergence, 0 to 100 scale (0 no effect, 100 complete control)
How it was run: as §1

barnyardgrass [4] = test: Test D flooded paddy test; type: in vivo, Echinochloa crus-galli; details: 250 g ai/ha, applied to paddy water, visual rating after 13 to 14 days, scale 0 to 100 (0 no effect, 100 complete control)
How it was run: (§2)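 Plants grown to the 2-leaf stage; pots flooded to 3 cm above soil at treatment and held at that depth throughout. Test compounds applied directly to the paddy water. After 13 to 14 days in a greenhouse, response was rated visually versus controls on a 0 (no effect) to 100 (complete control) scale.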

kochia [5] = test: Test C preemergence; type: in vivo, Bassia scoparia; details: preemergence, 0 to 100 scale (0 no effect, 100 complete control)
How it was run: as §1

pigweed, palmer [6] = test: Test C postemergence; type: in vivo, Amaranthus palmeri; details: 10 days, 0 to 100 scale (0 no effect, 100 complete control)
How it was run: as §1

soybean [7] = test: Test C postemergence; type: in vivo, Glycine max; details: 10 days, 0 to 100 scale (0 no effect, 100 complete control)
How it was run: as §1

oat, wild [8] = test: Test C preemergence; type: in vivo, Avena fatua; details: preemergence, 0 to 100 scale (0 no effect, 100 complete control)
How it was run: as §1

wheat [9] = test: Test C preemergence; type: in vivo, Triticum aestivum; details: preemergence, 0 to 100 scale (0 no effect, 100 complete control)
How it was run: as §1

ragweed [10] = test: Test C postemergence; type: in vivo, Ambrosia artemisiifolia; details: 10 days, 0 to 100 scale (0 no effect, 100 complete control)
How it was run: as §1

soybean [11] = test: Test C preemergence; type: in vivo, Glycine max; details: preemergence, 0 to 100 scale (0 no effect, 100 complete control)
How it was run: as §1

barnyardgrass [12] = test: Test C postemergence; type: in vivo, Echinochloa crusgalli; details: 10 days, 0 to 100 scale (0 no effect, 100 complete control)
How it was run: as §1

ducksalad = test: Test D flooded paddy test; type: in vivo, Heteranthera limosa; details: 250 g ai/ha, applied to paddy water, visual rating after 13 to 14 days, scale 0 to 100 (0 no effect, 100 complete control)
How it was run: as §2

pigweed, palmer [13] = test: Test C preemergence; type: in vivo, Amaranthus palmeri; details: preemergence, 0 to 100 scale (0 no effect, 100 complete control)
How it was run: as §1

corn [14] = test: Test C postemergence; type: in vivo, Zea mays; details: 10 days, 0 to 100 scale (0 no effect, 100 complete control)
How it was run: as §1

blackgrass [15] = test: Test C postemergence; type: in vivo, Alopecurus myosuroides; details: 10 days, 0 to 100 scale (0 no effect, 100 complete control)
How it was run: as §1

ryegrass, Italian [16] = test: Test C postemergence; type: in vivo, Lolium multiflorum; details: 10 days, 0 to 100 scale (0 no effect, 100 complete control)
How it was run: as §1

foxtail, giant [17] = test: Test C preemergence; type: in vivo, Setaria faberi; details: preemergence, 0 to 100 scale (0 no effect, 100 complete control)
How it was run: as §1

corn [18] = test: Test C preemergence; type: in vivo, Zea mays; details: preemergence, 0 to 100 scale (0 no effect, 100 complete control)
How it was run: as §1

horseweed = test: Test C postemergence; type: in vivo, Erigeron canadensis; details: 10 days, 0 to 100 scale (0 no effect, 100 complete control)
How it was run: as §1

sedge, umbrella = test: Test D flooded paddy test; type: in vivo, Cyperus difformis; details: 250 g ai/ha, applied to paddy water, visual rating after 13 to 14 days, scale 0 to 100 (0 no effect, 100 complete control)
How it was run: as §2

barnyardgrass [19] = test: Test C preemergence; type: in vivo, Echinochloa crusgalli; details: preemergence, 0 to 100 scale (0 no effect, 100 complete control)
How it was run: as §1

galium = test: Test C postemergence; type: in vivo, Galium aparine; details: 10 days, 0 to 100 scale (0 no effect, 100 complete control)
How it was run: as §1

wheat [20] = test: Test C postemergence; type: in vivo, Triticum aestivum; details: 10 days, 0 to 100 scale (0 no effect, 100 complete control)
How it was run: as §1

rice = test: Test D flooded paddy test; type: in vivo, Oryza sativa; details: 250 g ai/ha, applied to paddy water, visual rating after 13 to 14 days, scale 0 to 100 (0 no effect, 100 complete control)
How it was run: as §2

kochia [21] = test: Test C postemergence; type: in vivo, Bassia scoparia; details: 10 days, 0 to 100 scale (0 no effect, 100 complete control)
How it was run: as §1

ragweed [22] = test: Test C preemergence; type: in vivo, Ambrosia artemisiifolia; details: preemergence, 0 to 100 scale (0 no effect, 100 complete control)
How it was run: as §1

ryegrass, Italian [23] = test: Test C preemergence; type: in vivo, Lolium multiflorum; details: preemergence, 0 to 100 scale (0 no effect, 100 complete control)
How it was run: as §1

CC(C)c1cc(C(=O)N2C[C@H](C)Oc3c(Cl)cccc32)cc(-n2cncn2)c1 [Compound 316]
Plant response rating, Foxtail, Giant (foxtail, giant [1]; 500 g ai/ha, postemergence): 90
Plant response rating, Foxtail, Giant (foxtail, giant [1]; Postemergence, 125 g ai/ha): 10
Plant response rating, Oat, Wild (oat, wild [2]; 500 g ai/ha, postemergence): 20
Plant response rating, Oat, Wild (oat, wild [2]; Postemergence, 125 g ai/ha): 0
Blackgrass plant response rating (blackgrass [3]; 500 g ai/ha): 90
Blackgrass plant response rating (blackgrass [3]; Test C, 125 g ai/ha): 50
Plant response rating, Barnyardgrass (Flood) (barnyardgrass [4]): 0
Kochia plant response rating (kochia [5]; 500 g ai/ha): 0
Kochia plant response rating (kochia [5]; Test C, 125 g ai/ha): 0
Plant response rating, Pigweed, Palmer (pigweed, palmer [6]; 500 g ai/ha, postemergence): 60
Plant response rating, Pigweed, Palmer (pigweed, palmer [6]; Postemergence, 125 g ai/ha): 30
Plant response rating, Soybean (soybean [7]; 500 g ai/ha, postemergence): 100
Plant response rating, Soybean (soybean [7]; Postemergence, 125 g ai/ha): 100
Oat, Wild plant response rating (oat, wild [8]; 500 g ai/ha): 40
Oat, Wild plant response rating (oat, wild [8]; Test C, 125 g ai/ha): 20
Wheat plant response rating (wheat [9]; 500 g ai/ha): 20
Wheat plant response rating (wheat [9]; Test C, 125 g ai/ha): 0
Plant response rating, Ragweed (ragweed [10]; 500 g ai/ha, postemergence): 0
Plant response rating, Ragweed (ragweed [10]; Postemergence, 125 g ai/ha): 0
Soybean plant response rating (soybean [11]; 500 g ai/ha): 50
Soybean plant response rating (soybean [11]; Test C, 125 g ai/ha): 0
Plant response rating, Barnyardgrass (barnyardgrass [12]; 500 g ai/ha, postemergence): 50
Plant response rating, Barnyardgrass (barnyardgrass [12]; Postemergence, 125 g ai/ha): 10
Plant response rating, Ducksalad (Flood) (ducksalad): 0
Pigweed, Palmer plant response rating (pigweed, palmer [13]; 500 g ai/ha): 90
Pigweed, Palmer plant response rating (pigweed, palmer [13]; Test C, 125 g ai/ha): 60
Plant response rating, Corn (corn [14]; 500 g ai/ha, postemergence): 70
Plant response rating, Corn (corn [14]; Postemergence, 125 g ai/ha): 20
Plant response rating, Blackgrass (blackgrass [15]; 500 g ai/ha, postemergence): 70
Plant response rating, Blackgrass (blackgrass [15]; Postemergence, 125 g ai/ha): 50
Plant response rating, Ryegrass, Italian (ryegrass, Italian [16]; 500 g ai/ha, postemergence): 80
Plant response rating, Ryegrass, Italian (ryegrass, Italian [16]; Postemergence, 125 g ai/ha): 30
Foxtail, Giant plant response rating (foxtail, giant [17]; 500 g ai/ha): 100
Foxtail, Giant plant response rating (foxtail, giant [17]; Test C, 125 g ai/ha): 80
Corn plant response rating (corn [18]; 500 g ai/ha): 40
Corn plant response rating (corn [18]; Test C, 125 g ai/ha): 10
Plant response rating, Horseweed (horseweed; 500 g ai/ha, postemergence): 0
Plant response rating, Horseweed (horseweed; Postemergence, 125 g ai/ha): 0
Plant response rating, Sedge, Umbrella (Flood) (sedge, umbrella): 0
Barnyardgrass plant response rating (barnyardgrass [19]; 500 g ai/ha): 90
Barnyardgrass plant response rating (barnyardgrass [19]; Test C, 125 g ai/ha): 30
Plant response rating, Galium (galium; 500 g ai/ha, postemergence): 90
Plant response rating, Galium (galium; Postemergence, 125 g ai/ha): 40
Plant response rating, Wheat (wheat [20]; 500 g ai/ha, postemergence): 20
Plant response rating, Wheat (wheat [20]; Postemergence, 125 g ai/ha): 10
Plant response rating, Rice (Flood) (rice): 0
Plant response rating, Kochia (kochia [21]; 500 g ai/ha, postemergence): 80
Plant response rating, Kochia (kochia [21]; Postemergence, 125 g ai/ha): 30
Ragweed plant response rating (ragweed [22]; 500 g ai/ha): 0
Ragweed plant response rating (ragweed [22]; Test C, 125 g ai/ha): 0
Ryegrass, Italian plant response rating (ryegrass, Italian [23]; 500 g ai/ha): 90
Ryegrass, Italian plant response rating (ryegrass, Italian [23]; Test C, 125 g ai/ha): 70
